Test system: WSU-DLCL2 cells
Assay: RT2 Glucocorticoid signaling PCR array, WSU-DLCL2 (WSU) cell line (Table 4c)
Type: cell-based

C[C@]12C=CC(=O)C=C1CC[C@@H]1[C@@H]2[C@@H](O)C[C@@]2(C)[C@H]1CC[C@]2(O)C(=O)CO [Prednisolone, prednisolone]
ΔCT (B2M), MERTK (gene MERTK): 13.379 | Ct Values, MT2A (gene MT2A): 24.518 | ΔCT (B2M), MT2A (gene MT2A): 5.373 | ΔΔCT, MT2A (gene MT2A, compared to DMSO): 0.106 | Ct Values, NFKBIA (gene NFKBIA): 22.895 | ΔCT (B2M), NFKBIA (gene NFKBIA): 3.750 | ΔΔCT, NFKBIA (gene NFKBIA, compared to DMSO): 0.829 | Ct Values, NR3C1 (gene NR3C1): 23.110 | ΔCT (B2M), NR3C1 (gene NR3C1): 3.965 | ΔΔCT, NR3C1 (gene NR3C1, compared to DMSO): 0.165 | Ct Values, PDCD7 (gene PDCD7): 23.874 | ΔCT (B2M), PDCD7 (gene PDCD7): 4.729 | ΔΔCT, PDCD7 (gene PDCD7, compared to DMSO): 0.000 | Ct Values, PDP1 (gene PDP1): 24.957 | ΔCT (B2M), PDP1 (gene PDP1): 5.812 | ΔΔCT, PDP1 (gene PDP1, compared to DMSO): −0.109 | Ct Values, PER1 (gene PER1): 24.989 | ΔCT (B2M), PER1 (gene PER1): 5.844 | ΔΔCT, PER1 (gene PER1, compared to DMSO): 0.185 | Ct Values, PER2 (gene PER2): 24.218 | ΔCT (B2M), PER2 (gene PER2): 5.073 | ΔΔCT, PER2 (gene PER2, compared to DMSO): 0.072 | Ct Values, PIK3R1 (gene PIK3R1): 23.429 | ΔCT (B2M), PIK3R1 (gene PIK3R1): 4.284 | ΔΔCT, PIK3R1 (gene PIK3R1, compared to DMSO): 0.000 | Ct Values, PLD1 (gene PLD1): 35.266 | ΔCT (B2M), PLD1 (gene PLD1): 16.121 | Ct Values, PLEKHF1 (gene PLEKHF1): 26.977 | ΔCT (B2M), PLEKHF1 (gene PLEKHF1): 7.832 | ΔΔCT, PLEKHF1 (gene PLEKHF1, compared to DMSO): 0.077 | Ct Values, POU2F1 (gene POU2F1): 24.368 | ΔCT (B2M), POU2F1 (gene POU2F1): 5.223 | ΔΔCT, POU2F1 (gene POU2F1, compared to DMSO): 0.439 | Ct Values, POU2F2 (gene POU2F2): 22.565 | ΔCT (B2M), POU2F2 (gene POU2F2): 3.420 | ΔΔCT, POU2F2 (gene POU2F2, compared to DMSO): −0.753 | Ct Values, RASA3 (gene RASA3): 23.454 | ΔCT (B2M), RASA3 (gene RASA3): 4.309 | ΔΔCT, RASA3 (gene RASA3, compared to DMSO): −0.193 | Ct Values, RGS2 (gene RGS2): 23.962 | ΔCT (B2M), RGS2 (gene RGS2): 4.817 | ΔΔCT, RGS2 (gene RGS2, compared to DMSO): 1.365 | Ct Values, RHO8 (gene RHO8): 28.803 | ΔCT (B2M), RHO8 (gene RHO8): 9.658 | ΔΔCT, RHO8 (gene RHO8, compared to DMSO): −0.616 | Ct Values, RPLP0 (gene RPLP0): 15.330 | ΔCT (B2M), RPLP0 (gene RPLP0): −3.815 | Ct Values, SESN1 (gene SESN1): 25.915 | ΔCT (B2M), SESN1 (gene SESN1): 6.770 | ΔΔCT, SESN1 (gene SESN1, compared to DMSO): −2.469 | Ct Values, SGK1 (gene SGK1): 27.309 | ΔCT (B2M), SGK1 (gene SGK1): 8.164 | ΔΔCT, SGK1 (gene SGK1, compared to DMSO): 2.035 | Ct Values, SLC10A6 (gene SLC10A6): 37.200 | ΔCT (B2M), SLC10A6 (gene SLC10A6): 18.055 | ΔΔCT, SLC10A6 (gene SLC10A6, compared to DMSO): 0.888 | Ct Values, SLC19A2 (gene SLC19A2): 25.887 | ΔCT (B2M), SLC19A2 (gene SLC19A2): 6.742 | ΔΔCT, SLC19A2 (gene SLC19A2, compared to DMSO): −0.446 | Ct Values, SLC22A5 (gene SLC22A5): 29.427 | ΔCT (B2M), SLC22A5 (gene SLC22A5): 10.282 | ΔΔCT, SLC22A5 (gene SLC22A5, compared to DMSO): 0.831 | Ct Values, SNTA1 (gene SNTA1): 24.329 | ΔCT (B2M), SNTA1 (gene SNTA1): 5.184 | ΔΔCT, SNTA1 (gene SNTA1, compared to DMSO): 0.196 | Ct Values, SPHK1 (gene SPHK1): 29.804 | ΔCT (B2M), SPHK1 (gene SPHK1): 10.659 | ΔΔCT, SPHK1 (gene SPHK1, compared to DMSO): 0.466 | Ct Values, SPSB1 (gene SPSB1): 29.963 | ΔCT (B2M), SPSB1 (gene SPSB1): 10.818 | ΔΔCT, SPSB1 (gene SPSB1, compared to DMSO): 0.655 | Ct Values, STAT5A (gene STAT5A): 25.699 | ΔCT (B2M), STAT5A (gene STAT5A): 6.554 | ΔΔCT, STAT5A (gene STAT5A, compared to DMSO): 0.437 | Ct Values, STAT5B (gene STAT5B): 23.270 | ΔCT (B2M), STAT5B (gene STAT5B): 4.125 | ΔΔCT, STAT5B (gene STAT5B, compared to DMSO): 0.161 | Ct Values, TBL1XR1 (gene TBL1XR1): 21.479 | ΔCT (B2M), TBL1XR1 (gene TBL1XR1): 2.334 | ΔΔCT, TBL1XR1 (gene TBL1XR1, compared to DMSO): 0.182 | Ct Values, TNF (gene TNF): 24.151 | ΔCT (B2M), TNF (gene TNF): 5.006 | ΔΔCT, TNF (gene TNF, compared to DMSO): 0.762 | Ct Values, TNFAIP3 (gene TNFAIP3): 26.733 | ΔCT (B2M), TNFAIP3 (gene TNFAIP3): 7.588 | ΔΔCT, TNFAIP3 (gene TNFAIP3, compared to DMSO): 2.092 | Ct Values, TSC22D3 (gene TSC22D3): 22.481 | ΔCT (B2M), TSC22D3 (gene TSC22D3): 3.336 | ΔΔCT, TSC22D3 (gene TSC22D3, compared to DMSO): −2.728 | Ct Values, USP2 (gene USP2): 20.884 | ΔCT (B2M), USP2 (gene USP2): 1.739 | ΔΔCT, USP2 (gene USP2, compared to DMSO): −1.457 | Ct Values, USPS4 (gene USPS4): 26.453 | ΔCT (B2M), USPS4 (gene USPS4): 7.308 | ΔΔCT, USPS4 (gene USPS4, compared to DMSO): 0.209 | Ct Values, VDR (gene VDR): 29.232 | ΔCT (B2M), VDR (gene VDR): 10.087 | ΔΔCT, VDR (gene VDR, compared to DMSO): −0.565 | Ct Values, VLDLR (gene VLDLR): 30.596 | ΔCT (B2M), VLDLR (gene VLDLR): 11.451 | ΔΔCT, VLDLR (gene VLDLR, compared to DMSO): 2.649 | Ct Values, ZFP36 (gene ZFP36): 25.166 | ΔCT (B2M), ZFP36 (gene ZFP36): 6.021 | ΔΔCT, ZFP36 (gene ZFP36, compared to DMSO): 1.104 | Ct Values, ZHX3 (gene ZHX3): 25.570 | ΔCT (B2M), ZHX3 (gene ZHX3): 6.425 | ΔΔCT, ZHX3 (gene ZHX3, compared to DMSO): 0.101 | Ct Values, ZNF281 (gene ZNF281): 23.608 | ΔCT (B2M), ZNF281 (gene ZNF281): 4.463 | ΔΔCT, ZNF281 (gene ZNF281, compared to DMSO): −0.094

Source: patent US10456407B2, “Combination therapy for treating cancer” (Epizyme, Inc., priority 2015, dated 2019)
